{"source": "patent US20040192774A1", "about": "“Method for improving the well-being of poultry by in-ovo injection of carnitine” (priority 2001, published 2004)", "key": {"[1]": {"test_system": "Cobb-500 strain of broiler chicken", "assay": "Floor pen studies: broiler performance after day 18 in-ovo carnitine injection (or carnitine-supplemented feed)", "type": "in vivo", "conditions": "for FCR 0-49 (feed conversion ratio): 0 to 49 days post-hatch; for FCR 0-70 (feed conversion ratio): 0 to 70 days post-hatch; for FCR 49-70 (feed conversion ratio): 49 to 70 days post-hatch", "description": "(§1) Approximately 4000 embryonated, freshly laid eggs of Cobb-500 strain of broiler chicken (obtained from Cobb Vantress of Siloam Springs, Ark.) were pre-selected as to uniformity of weight and originated from breeder hens at approximately 35-45 weeks of the production cycle. The eggs were kept in a climatised incubation chamber at 37° C. up to day 18 post-laying. Eggs were then injected with either 100 μl sterile physiological saline or 150 μg carnitine comprised in 100 μl sterile physiological saline on day 18 of incubation. Incubation was then carried on until hatch. Carnitine was commercially available L-Carnitine (trade name: Carnifeed, Lonza Inc., 100% L-Carnitine). The eggs were injected with the automatic inovoject-system of Embrex, Inc. (maximum capacity: 50,000 eggs per hour). The system punches a tiny hole into the egg shell and then lowers a needle through the hole which delivers the therapeutic product to the embryo. Needles are automatically sanitized after each injection and provide for 100% inoculation.\n(§2) To assess the effect of the carnitine injection carried out according to Example 1, birds were selected at random from the birds originating from the Example 1 and raised up to 70 days. The birds were either placed in a commercial production environment (12 floor pens/trt; 50 birds/pen) or in metabolic chambers with normal feed but subnormal, controlled oxygen supply. The latter is an accepted testing model for trigger the ascites condition in predispositioned birds. Approximately 2400 chicks were allocated to floor pen groups as described below. Three hundred birds were selected at random and incubated in the metabolic chambers. Standard feeds were applied (similar to diets fed to commercial broiler chickens); and nutrient specifications are shown below. Feeds were mixed according to accepted mixing procedures such that treatment diets only differed in presence or absence of carnitine.\nData were analyzed using the General Linear Model procedure of SAS (SAS, 1985). When a significant F statistic was noted by ANOVA, treatment means were compared using least square analysis variance.\nData are only given where probability levels were p≦0.10. In general, carnitine effects, though not always being statistically significant at p<0.05, were consistent across trials.\nNumber of days post-hatch are indicated, e.g., BW21: Hatched chicks were grown for 21 days prior to measurement.\nMortality (M) is given as main effect mean in %. Number of days post-hatch are indicated, e.g., M21-49: percentage of death birds in the period of 21 to 49 days post-hatch.\nMain effect means for feed conversion ratio (FCR, in grams of feed per gram of gain) is given. Number of days post-hatch are indicated, e.g., FCR 0-49: FCR in the period 0 to 49 days post-hatch that chicks were grown. For further control, the effect of in-ovo injection was compared to that of feeding the same diet, except that this diet was supplemented with carnitine at 200 ppm. Feed conversion was improved by carnitine treatment, either fed or injected. The results from both methods of carnitine administration were consistent."}, "[2]": {"test_system": "Cobb-500 strain of broiler chicken", "assay": "Metabolic chamber studies: subnormal oxygen supply, ascites model", "type": "in vivo", "conditions": "for HCT (hematocrit, packed cell volume) / AS (ascites score): day 14, 17% oxygen", "from_the_text": "In the context of the present invention, the ascites score is understood as an empirical score from 0 to 3 indicating no to severe myocardial degeneration, based on the histopathological changes. Pathological changes in cardiac traits such as right ventricle weight and ascites heart ratio, defined as the ratio of right ventricle weight to total ventricle weight, are also taken into account.\nA score of zero indicated minimal fat deposition and myofiber size variation, whereas a score of three indicated marked myocardial degeneration, highly abnormal cardiac traits and arteritis. A score of two was intermediate to the two extremes.\nas §1, §2\nChicks were reared in air-tight chambers at subnormal oxygen supply simulating high altitude conditions. Feed and drinking water were provided for ad-libitum consumption. Chamber temperature was maintained at 30° C. the first 5 days of age and at 27.8° C. thereafter. Chambers were checked twice daily for bird mortality. Compressed dried air (7% relative humidity (rH), 17% oxygen) was delivered to chicks in the chamber via polyethylene tubes. It was necessary to provide low rH-air to the chick chamber in order to hold the chamber at rH below 75%. The concentration of oxygen and carbon dioxide in air exiting each bird's chamber was monitored every 15-25 minutes using Ametek oxygen (accuracy±0.2%) and carbon dioxide (accuracy±0.3%) analyzers, respectively.\nApart from body weight and body temperature at hatching (day 0; BW0, BT0), ascites score (AS) and hematocrit (packed cell volume; HCT) of chicks were determined at day 14. Blood (2 ml) was taken from the birds via venipuncture after which they were euthanized using CO2 and necropsies were performed.\nHearts were weighed whole and then dissected for determination of ascites heart ratio. Heart sections were taken and fixed in 10% buffered neutral formalin for histopathologic examinantion. The results of heart dissection and histopathological analysis were summarized in the ascites score."}, "[3]": {"conditions": "fed: diet supplemented with carnitine at 200 ppm"}, "[4]": {"conditions": "injection of carnitine versus not injected"}}}
{"smiles": "C[N+](C)(C)CC(O)CC(=O)[O-]", "note": "(stereo not drawn) [carnitine, 3-hydroxy-4-N-trimethylaminobutyric acid]", "values": [{"measurement": "BW 21 (body weight, main effect mean)", "setting": "[1]; 150 μg carnitine in-ovo injected on day 18 of incubation, 21 days post-hatch", "value": 719.9, "unit": "g"}, {"measurement": "BW 49 (body weight, main effect mean)", "setting": "[1]; 150 μg carnitine in-ovo injected on day 18 of incubation, 49 days post-hatch", "value": 2940.7, "unit": "g"}, {"measurement": "BW 70 (body weight, main effect mean)", "setting": "[1]; 150 μg carnitine in-ovo injected on day 18 of incubation, 70 days post-hatch", "value": 4168.1, "unit": "g"}, {"measurement": "effect on feed conversion (in words)", "setting": "[1]; carnitine treatment, either fed or injected", "value": "improved"}, {"measurement": "FCR 0-49 (feed conversion ratio)", "setting": "[1]; [3]", "value": "1.817 grams of feed per gram of gain"}, {"measurement": "FCR 0-70 (feed conversion ratio)", "setting": "[1]; [3]", "value": "2.331 grams of feed per gram of gain"}, {"measurement": "FCR 49-70 (feed conversion ratio)", "setting": "[1]; [3]", "value": "3.535 grams of feed per gram of gain"}, {"measurement": "FCR 0-49 (feed conversion ratio)", "setting": "[1]; in-ovo injected day 18", "value": "1.839 grams of feed per gram of gain"}, {"measurement": "FCR 0-70 (feed conversion ratio)", "setting": "[1]; in-ovo injected day 18", "value": "2.369 grams of feed per gram of gain"}, {"measurement": "FCR 49-70 (feed conversion ratio)", "setting": "[1]; in-ovo injected day 18", "value": "3.648 grams of feed per gram of gain"}, {"measurement": "WG 0-21 (weight gain, main effect mean)", "setting": "[1]; in-ovo injected day 18, period 0-21 days post-hatch", "value": 681.7, "unit": "g"}, {"measurement": "M 0-70 (mortality, main effect mean)", "setting": "[1]; in-ovo injected day 18, period 0 to 70 days post-hatch", "value": 21.92, "unit": "%"}, {"measurement": "WG 21-49 (weight gain, main effect mean)", "setting": "[1]; in-ovo injected day 18, period 21-49 days post-hatch", "value": 2220.8, "unit": "g"}, {"measurement": "M 21-49 (mortality, main effect mean)", "setting": "[1]; in-ovo injected day 18, period 21 to 49 days post-hatch", "value": 4.66, "unit": "%"}, {"measurement": "WG 49-70 (weight gain, main effect mean)", "setting": "[1]; in-ovo injected day 18, period 49-70 days post-hatch", "value": 1227.4, "unit": "g"}, {"measurement": "M 49-70 (mortality, main effect mean)", "setting": "[1]; in-ovo injected day 18, period 49 to 70 days post-hatch", "value": 14.33, "unit": "%"}, {"measurement": "weight per 100 chicks started", "setting": "[1]; in-ovo injected eggs, end of the 70 days period post-hatch", "value": 32.54, "unit": "kg"}, {"measurement": "mortality rate, cumulative", "setting": "[1]; in-ovo injection, highest age", "value": "~20", "unit": "%"}, {"measurement": "HCT (hematocrit, packed cell volume)", "setting": "[2]; fed: L-carnitine at 200 ppm (coated on silica particles) via the feed", "value": 30.25, "unit": "Percent packed cells"}, {"measurement": "AS (ascites score)", "setting": "[2]; fed: L-carnitine at 200 ppm (coated on silica particles) via the feed, scale from 0-3", "value": 0.303}, {"measurement": "BT 0 (body temperature at hatching)", "setting": "[2]; in-ovo injected day 18, day 0", "value": 101.73, "unit": "° F."}, {"measurement": "BW 0 (body weight at hatching)", "setting": "[2]; in-ovo injected day 18, day 0", "value": 38.82, "unit": "g"}, {"measurement": "HCT (hematocrit, packed cell volume)", "setting": "[2]; in-ovo injected day 18", "value": 30.04, "unit": "Percent packed cells"}, {"measurement": "AS (ascites score)", "setting": "[2]; in-ovo injected day 18, scale from 0-3 (no, slight, moderate, severe ascites lesions)", "value": 0.277}, {"measurement": "effect on ascites score (in words)", "setting": "[2]; [4]", "value": "decreased"}, {"measurement": "effect on hematocrit (in words)", "setting": "[2]; [4]", "value": "decreased"}, {"measurement": "increase of body weight at hatching", "setting": "[2]; single injection of carnitine into incubating eggs, versus control", "value": 0.5, "unit": "g"}]}
